# Data from publication PMC4409337, “Immucillins Impair Leishmania (L.) infantum chagasi and Leishmania (L.) amazonensis Multiplication In Vitro” (PLoS ONE, 2015).
# Where two headings read alike, the source gives them in different places.
# Key:
# [1] = test system: Nucleoside hydrolase NH36 of L. (L.) donovani; format: biochemical, Leishmania (L.) donovani; conditions: substrate of NH36; for k cat /K m: catalytic efficiency; for K m / k cat: 25°C, 50 mM Hepes pH 7.4
# Procedure: (§1) BL21DE3 E.coli were transformed with the synthetic plasmid pET 28b encoding the gene of NH36 of Leishmania (L.) donovani (EMBL, Genbank and DDJB data bases, access number AY007193) with a His6tag at the C-terminal. Expression was induced with 0.5 mM IPTG and overnight incubation at 20°C. Purification of NH36 was performed on a column of Ni-NTA Superflow resin (Qiagen, USA) eluted by a stepwise imidazole gradient and monitored by SDS-polyacrylamide gel electrophoresis and protein assay. The extinction coefficient of NH36 is 21.437 mM^-1 cm^-1 at 280 nm, as calculated with the ProtParam program from ExPASy, and was used to estimate protein concentration (http://ca.expasy.org/seqanalref/). The yield of NH36 after purification was 11.87 mg per Liter of bacterial growth culture. Non-specific His-proteins with weak interactions were eluted with 50–100 mM imidazole (S1 Fig). The purified NH36 started to elute with 150 mM imidazole. We used 250 mM of imidazol in elution buffer for purification of NH36.
# Steady-state kinetic rates for NH36 were determined on the substrates inosine, guanosine, adenosine, uridine and cytidine. Hypoxanthine and adenine formation were coupled to xanthine oxidase (12.9 mM^-1 cm^-1 at 293 nm and 15.2 mM^-1 cm^-1 at 305 nm, respectively), and the others were followed by direct uv absorbance changes resulting from cleavage of the N-ribosidic bond. Reaction mixtures contained 50 mM Hepes (pH 7.4), 100 mM NaCl and 5 mM of DTT. One unit, and 0.1 unit of xanthine oxidase (XOD) were used as the coupling enzyme to the adenosine and inosine assays, respectively. Spectral changes for hydrolysis of guanosine, uridine and cytidine were 5.4 mM^-1 cm^-1 at 257 nm,1.8 mM^-1 cm^-1 at 280 nm and 1.8 mM^-1 cm^-1 at 288 nm, respectively. Variable concentrations of substrate and appropriate amounts of purified NH36 were added in all assays. The hydrolysis of nucleosides to bases and ribose was followed by continuous recording of optical absorbance after addition of the enzyme, in a CARY 300 UV-visible spectrophotometer. Control rates with no enzyme addition were subtracted from initial rates. Reactions with substrates were conducted at 25°C using 1 cm path length cuvettes containing 1 mL reaction volumes. Kinetic parameters of NH36 were obtained by fitting initial rates to the Michaelis−Menten equation using GraFit 5 (Erithacus Software).
# [2] = test system: nucleoside hydrolase from Leishmania (L.) donovani; parameters: method as in PMID 11738828; conditions: NH cloned in pET-22; cited from earlier work
# [3] = test system: NH of L. (L.) major; parameters: method as in PMID 10409664; conditions: ref 13; cited from earlier work
# [4] = test system: intracellular amastigotes of L. (L.) infantum chagasi; assay: Replication of intracellular amastigotes in infected peritoneal macrophages (phagocytic index); format: cell-based, Leishmania (L.) infantum chagasi; conditions: for EC50: drugs (0.5–10 μM) added at 0 h, incubation 24 h, linear interpolation, read-out: EC50 (CI 95%)
# Procedure: […] […] The amastigote growth was assessed 24 h after the last drug addition, on 200 cells in Giemsa stained coverslips and expressed as phagocytic index = percent of infected macrophages x average number of intracellular amastigotes. […] All experiments with mice were reviewed and approved by the Animal Care and Use Committee of the Instituto de Biofísica Carlos Chagas Fo.-UFRJ (CAUAP-CONCEA, Brazil, IMPPG-016) and were performed according to the guidelines of the National Institutes of Health, USA. We made all efforts in order to minimize animal suffering.
# [5] = test system: strains of L. (L.) infantum chagasi; parameters: method as in PMID 23747751; conditions: cited from earlier work
# [6] = test system: intracellular amastigotes of L. (L.) infantum chagasi; conditions: cited from earlier work
# [7] = test system: amastigotes of L. (L.) amazonensis; parameters: method as in PMID 18660990; conditions: ref 43; read-out: IC50 against amastigotes; cited from earlier work
# [8] = biological target: T1, Nucleoside hydrolase NH36 (Leishmania donovani, UniProt Q8WQX2); assay: Ki determination: inhibition of NH36 activity by immucillins; format: biochemical, Leishmania (L.) donovani; conditions: 10 mM inosine as substrate, 0.5 nM NH36, pH 7.4, room temperature
# T1 sequence (Q8WQX2 1-314): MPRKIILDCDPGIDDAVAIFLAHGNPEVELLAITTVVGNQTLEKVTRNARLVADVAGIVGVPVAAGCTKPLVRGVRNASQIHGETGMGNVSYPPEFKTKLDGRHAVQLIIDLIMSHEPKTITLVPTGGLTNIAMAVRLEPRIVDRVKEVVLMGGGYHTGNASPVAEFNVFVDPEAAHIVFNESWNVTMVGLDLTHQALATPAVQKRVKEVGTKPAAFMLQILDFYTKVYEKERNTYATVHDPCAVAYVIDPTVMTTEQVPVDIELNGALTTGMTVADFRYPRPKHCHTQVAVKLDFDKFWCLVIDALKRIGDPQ
# Procedure: as §1
# The reaction mixtures contained 10 mM inosine as substrate, 50 mM Hepes (pH 7.4), 100 mM KCl, 5 mM DTT and 1 unit XOD. The hydrolysis of inosine to hypoxanthine and ribose was followed by continuous reading of optical absorbance at 293 nm, using variable concentrations of inhibitors in a CARY 300UV-visible spectrophotometer. Controls without enzyme and without inhibitors were included in all inhibition assays. The inhibition constant for each immucillin was obtained, using GraFit 5 (Erithacus Software), by fitting initial rates with variable inhibitor concentrations to the equation (vi/v0 = [S] / Km + [S] + Km[I] / Ki), where v i is the initial rate in the presence of the inhibitor, v 0 is the initial rate in the absence of the inhibitor, K m is the Michaelis constant for inosine, [S] and [I] are inosine and inhibitor concentrations, respectively, and Ki is the inhibition constant.
# [9] = test system: L. (L.) infantum chagasi promastigotes; assay: In vitro growth of promastigotes in FBS supplemented Schneider's insect medium; format: cell-based, Leishmania (L.) infantum chagasi
# Excerpt: The strain of Leishmania (L.) infantum chagasi MHOM/BR/1974/PP75 was obtained from the Leishmania Type Culture Collection (Fundacão Oswaldo Cruz, Rio de Janeiro, RJ, Brazil) and the strain of Leishmania (L.) amazonensis (MHOM/BR/1975/Josefa) was kindly given by Professor Rosâ[…] from Universidade Federal do Rio de Janeiro. Promastigotes were maintained by weekly transfers in screw-capped glass tubes containing Schneider's insect medium (Sigma Aldrich, MO, USA), pH 7.0, supplemented with 10% Fetal Bovine Serum (FBS) at 26°C. […] Log phase promastigotes of L. (L.) infantum chagasi and L. […] Promastigotes were recorded in a Neubauer chamber after 24, 48, 72 and 96 hours of incubation at 26°C. […] The concentration of adenosine in Schneider s insect serum supplemented medium was assessed by HPLC using a C-18 reverse-phase column as described.
# [10] = test system: L. (L.) amazonensis promastigotes; assay: as above; format: cell-based, Leishmania (L.) amazonensis; conditions: Leishmania amazonensis
# Excerpt: The strain of Leishmania (L.) infantum chagasi MHOM/BR/1974/PP75 was obtained from the Leishmania Type Culture Collection (Fundacão Oswaldo Cruz, Rio de Janeiro, RJ, Brazil) and the strain of Leishmania (L.) amazonensis (MHOM/BR/1975/Josefa) was kindly given by Professor Rosâ[…] from Universidade Federal do Rio de Janeiro. Promastigotes were maintained by weekly transfers in screw-capped glass tubes containing Schneider's insect medium (Sigma Aldrich, MO, USA), pH 7.0, supplemented with 10% Fetal Bovine Serum (FBS) at 26°C. Stock solutions (20 mM) of immucillins IA […] prepared using Milli-Q purified water. Log phase promastigotes of L. (L.) infantum chagasi and L. […] Promastigotes were recorded in a Neubauer chamber after 24, 48, 72 and 96 hours of incubation at 26°C. […] We also assayed the possibility of reversing the inhibitory effect of IA in RPMI medium by the addition of adenosine to the culture medium. The concentration of adenosine in Schneider s insect serum supplemented medium was assessed by HPLC using a C-18 reverse-phase column as described.
# [11] = test system: L. (L.) infantum chagasi promastigotes; assay: Transmission electron microscopy of treated promastigotes; format: cell-based, Leishmania (L.) infantum chagasi; conditions: 10 μM, 72 h
# Excerpt: The cells were washed with Milli Q water, dehydrated in increasing concentration of acetone and embedded in Epon (1: 1) (PolyBed 812). The ultrathin sections were obtained, contrasted with 5% uranyl acetate and lead citrate and observed under a Joel 1200 electron microscope.
# [12] = Macrophage viability and cytotoxicity (Trypan Blue); conditions: female, BALB/c, mouse, peritoneal macrophages
# Procedure: Alternatively, the immucillins were added at 0, 24 and 48 h and viability assessed after 72h. […] The amastigote growth was assessed 24 h after the last drug addition, on 200 cells in Giemsa stained coverslips and expressed as phagocytic index = percent of infected macrophages x average number of intracellular amastigotes. […] All experiments with mice were reviewed and approved by the Animal Care and Use Committee of the Instituto de Biofísica Carlos Chagas Fo.-UFRJ (CAUAP-CONCEA, Brazil, IMPPG-016) and were performed according to the guidelines of the National Institutes of Health, USA. We made all efforts in order to minimize animal suffering.
# [13] = single 10 μM dose at 0 h, compared to untreated controls
compound,measurement,setting,value
O=c1[nH]cnc2c1ncn2[C@@H]1O[C@H](CO)[C@@H](O)[C@H]1O [Inosine],k cat /K m,[1],31800 M⁻¹ s⁻¹
same,K m,[1],340 ± 30 µM
same,k cat,[1],10.8 ± 0.3 s ^-1
same,k cat,[2],7.6 s⁻¹
same,k cat,[3],119 s⁻¹
O=c1ccn([C@@H]2O[C@H](CO)[C@@H](O)[C@H]2O)c(=O)[nH]1 [Uridine],k cat /K m,[1],16000 M⁻¹ s⁻¹
same,K m,[1],"2,100 ± 561 μM"
same,k cat,[1],34.3 ± 4.2 s ^-1
same,k cat,[2],9.5 s⁻¹
same,k cat,[3],32 s⁻¹
Glucantime,EC50,[4],7.1 µM
same,reduction in the number of intracellular amastigotes,[4]; [13],70%
same,IC50,[5]; Leishmania strains isolated from dogs,20000 to 32300 µM
same,IC50,[5]; human strains of L. (L.) infantum chagasi,430 to 5760 µM
same,IC50,"[6]; ref 43, read-out: IC50 against replication of amastigotes",348 µM
same,IC50,"[6]; ref 44, read-out: IC50 against intracellular amastigotes",1420 µM
same,IC50,"[6]; ref 45, read-out: IC50 against intracellular amastigotes",31.1 µM
same,IC50,[7],62.6 µM
O=c1[nH]cnc2c(CNC(CO)CO)c[nH]c12 [SMIH],Ki,[8],> 5 µM
same,IC50,"[9]; Leishmania infantum, drugs added at 0, 24 and 48 h, after 48h, read-out: IC50 on promastigote growth, daily addition",1 nM
same,IC50,"[9]; Leishmania infantum, drugs added at 0, 24 and 48 h, at 72 and 96 h, read-out: IC50 on promastigote growth, daily addition",< 0.01 nM
same,IC50,"[9]; Leishmania infantum, single addition at 0 h, evaluated after 48 hours, 26°C, read-out: IC50 (CI 95%) on L. (L.) infantum chagasi promastigotes in vitro growth",8 nM
same,inhibition at 0.05 µM,"[9]; Leishmania infantum, 50 nM, after 96 h of culture, read-out: percent inhibition on L. (L.) infantum chagasi promastigote growth",99%
same,reduction of the IC50 by daily addition compared to single addition,"[9]; daily addition (0, 24, 48 h) vs single addition (Table 2), 48 h",88%
same,inhibition at 0.05 µM,"[10]; 50 nM, after 96 h of culture, read-out: percent growth inhibition on L. (L.) amazonensis",61%
same,inhibition at 500 µM,"[10]; 500 μM, after 96 h of culture, read-out: percent inhibition on L. (L.) amazonensis replication",71%
same,IC50,"[10]; single addition at 0 h, evaluated after 48 hours, 26°C, read-out: IC50 (CI 95%) on L. (L.) amazonensis promastigotes in vitro growth",0.007 µM
same,effect on cellular ultrastructure of promastigotes,[11],"complete alteration of their cellular morphology with intense cytoplasm vacuolization, enlarged vesicles and alterations in the kinetoplasts"
same,CC50 at 48 h,[12],800 µM
same,reduction in the number of intracellular amastigotes,"[4]; 10 μM added daily at 0, 24 and 48 h",95%
same,EC50,"[4]; Leishmania infantum, Peritoneal macrophage",7.1 µM
same,decrease of intracellular amastigote parasite load,"[4]; low micromolar concentrations, single to daily protocol",74–95%
same,reduction in the number of intracellular amastigotes,[4]; [13],70%
